In PMC4718634, “Murine GPRC6A Mediates Cellular Responses to L-Amino Acids, but Not Osteocalcin Variants” (PLoS ONE, 2016):
Entries after “also recorded” stand apart in the source; their conditions may differ.

Assays:
GLUTag cells = experiment: GLP-1 release from GLUTag cells; assay type: cell-based, murine; conditions: for GLP-1 release (summary): S1 Table
Summary of the method: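 Matrigel-grown cells, where indicated pre-washed in Krebs-HEPES pH 7.2 with 5.5 mM glucose and 300 μM vildagliptin, were exposed to compound for 2 h at 37 °C. Secreted GLP-1 was measured by fluorescent ELISA (355/460 nm) and normalised to Bradford protein. LogEC50 values came from 3- or 4-parameter logistic fits.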

mGPRC6A (mouse GPRC6A) = target: T1, mGPRC6A (mouse GPRC6A) (Mus musculus, UniProt Q8K4Z6); experiment: ERK1/2 phosphorylation, FlpIn-TREx-HEK293-mGPRC6A cells; assay type: cell-based
T1 sequence (Q8K4Z6 21-928): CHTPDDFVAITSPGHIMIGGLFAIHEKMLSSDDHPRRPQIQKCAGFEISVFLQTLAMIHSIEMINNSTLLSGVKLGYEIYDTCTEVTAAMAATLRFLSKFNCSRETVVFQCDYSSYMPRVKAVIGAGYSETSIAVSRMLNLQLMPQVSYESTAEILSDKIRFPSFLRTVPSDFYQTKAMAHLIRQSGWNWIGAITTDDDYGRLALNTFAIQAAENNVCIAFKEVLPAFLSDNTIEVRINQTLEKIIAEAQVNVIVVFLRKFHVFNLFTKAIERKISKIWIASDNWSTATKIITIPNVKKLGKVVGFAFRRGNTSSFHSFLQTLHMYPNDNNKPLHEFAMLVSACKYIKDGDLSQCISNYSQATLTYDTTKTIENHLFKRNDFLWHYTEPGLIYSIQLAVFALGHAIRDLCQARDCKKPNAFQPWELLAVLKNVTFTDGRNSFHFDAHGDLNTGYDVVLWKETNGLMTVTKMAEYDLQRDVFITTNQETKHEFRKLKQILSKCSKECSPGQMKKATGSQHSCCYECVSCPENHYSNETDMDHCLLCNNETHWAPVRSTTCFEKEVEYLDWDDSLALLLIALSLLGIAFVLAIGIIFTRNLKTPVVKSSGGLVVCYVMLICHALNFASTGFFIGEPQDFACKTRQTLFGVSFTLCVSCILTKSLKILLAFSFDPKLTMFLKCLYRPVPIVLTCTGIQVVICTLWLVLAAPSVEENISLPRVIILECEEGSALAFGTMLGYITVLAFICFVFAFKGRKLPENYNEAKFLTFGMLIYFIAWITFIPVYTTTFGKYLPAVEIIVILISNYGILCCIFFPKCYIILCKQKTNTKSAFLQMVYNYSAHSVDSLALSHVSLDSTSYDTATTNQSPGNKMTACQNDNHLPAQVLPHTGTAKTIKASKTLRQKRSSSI
Procedure: pcDNA 5/FRT/TO constructs were isogenically integrated into a FlpIn-TREx-HEK293 cell line (Life Technologies). FlpIn-TREx-HEK293-mGPRC6A and FlpIn-TREx-HEK293-hGPRC6A cells were then selected using 600 μg/ml hygromycin and 5 μg/ml blasticidin and grown in culture medium consisting of Dulbecco’s Modified Eagle Medium (DMEM), supplemented with 10% (v/v) foetal bovine serum (FBS) at 37°C in 5% CO2 and were sub-cultured in a 1:3 ratio every 3–4 days. Cells were cultured overnight in the presence of 1 μg/ml tetracycline to induce GPRC6A expression. […] 48 h after transfection, cells were selected using 3 μg/ml puromycin and grown as above.
Cells were then stimulated with ligand at various time points and incubated at 37°C in 5% CO2. 10% FBS (v/v) was used as a positive control. The reaction was terminated by removal of compounds and lysis of cells with SureFire lysis buffer (TGR Biosciences). The lysates were then treated as per the SureFire ERK1/2 kit instructions. Plates were incubated in the dark at 37°C for 1 h, then left to equilibrate with the ambient temperature before the fluorescence signal was measured using a Fusion plate reader (PerkinElmer) with standard AlphaScreen settings. Data were normalised to the maximal response elicited by 10% FBS (v/v) at the same time point.

| Molecule | GLP-1 release (GLUTag cells; L-ornithine 20 mM, 2 h, 37°C, cells washed, **P < 0.01 vs Vehicle, ELISA, Fig 6A) | GLP-1 release (summary) (GLUTag cells) | stimulation of ERK1/2 phosphorylation (mGPRC6A (mouse GPRC6A); without GαqG66D, L-ornithine 1 mM, OCN variants 40 ng/ml, Fig 3B) | GLP-1 release, OCN (GLUTag cells; 0.01–10 ng/ml, with or without cell washing, 2 h, Fig 6A) | pERK1/2 response (summary) (mGPRC6A (mouse GPRC6A); S1 Table) |
| --- | --- | --- | --- | --- | --- |
| NCCC[C@H](N)C(=O)O [L-ornithine] | significantly increases GLP-1 release; also recorded: L-ornithine stimulated GLP-1 release | response | Neither L-ornithine (1 mM) nor OCN variants (40 ng/ml) stimulate ERK1/2 phosphorylation; also recorded: no detectable modulation of cAMP accumulation or phosphorylation of ERK1/2 |  |  |
| OCN: osteoblast-derived peptide, osteocalcin; variant not specified at the place (YLYQWLGAPVPYPDPLEPRREVCELNPDCDELADHIGFQEAYRRFYGPV; UniProt P02818 52-100, looked up) |  | No response |  | failed to increase GLP-1 release | no response |
